Source: patent US20240082282A1 (priority 2020, published 2024)
Where two headings read alike, the source gives them in different places.

Columns and labels:
[1] = tested on: Streptococcus salivarius KLE 2370; format: cell-based; settings: Streptococcus salivarius KLE 2370, anaerobic, stool isolate
[2] = tested on: Blautia producta ATCC 27340; format: cell-based; settings: Blautia producta ATCC 27340, anaerobic
[3] = tested on: Leptospira biflexa ATCC 23582
[4] = tested on: Borreliella burgdorferi N40; settings: Borreliella burgdorferi N40, microaerophilic
[5] = tested on: Borreliella burgdorferi 297; settings: Borreliella burgdorferi 297, microaerophilic
[6] = tested on: Borrelia turcica DSM 16138
[7] = tested on: Bacteroides fragilis ATCC 25285; format: cell-based
[8] = tested on: Borrelia afzelii
[9] = tested on: Staphylococcus epidermidis KLE 2378; format: cell-based; settings: Staphylococcus epidermidis KLE 2378, anaerobic, stool isolate
[10] = tested on: Streptococcus parasanguinis KLE 2375; format: cell-based; settings: Streptococcus parasanguinis KLE 2375, anaerobic, stool isolate
[11] = tested on: Borrelia bavariensis
[12] = tested on: Enterococcus faecalis KLE 2341; format: cell-based
[13] = tested on: Bacteroides xylanisolvens KLE 2305; format: cell-based; settings: Bacteroides xylanisolvens KLE 2305, anaerobic, stool isolate
[14] = tested on: murine gut microbiome; assay: Impact on the murine fecal microbiome (16S rRNA sequencing)
Description: Stool samples were collected and V4 region of the 16s rRNA gene was amplified using primers and sequenced (IonTorrent).
Fecal pellets were collected 3 days before and 3 days after antibiotic treatment and were stored at −80° C. in PBS. Sequencing of a stool pellet from each mouse from before and after treatment was performed by MR DNA (www.mrdnalab.com, Shallowater, TX, USA) on an Ion Torrent PGM. Using PCR primers, the V4 variable region of the 16SrRNA gene was amplified in a single-step 30 cycle PCR with the HotStarTaq Plus Master Mix Kit (Qiagen, USA). The following conditions were used: 94° C. for 3 minutes and 30 cycles of 94° C. for 30 seconds, 53° C. for 40 seconds and 72° C. for 1 minute, then a final elongation step for 5 minutes at 72° C. […] Barcodes and primers and then sequences<150 bp were removed. Further, sequences with homopolymer runs exceeding 6 bp and sequences with ambiguous calls were removed. The sequences were then denoised, OTUs were generated, and chimeras were removed; OTUs were clustered at 3% divergence. Taxonomic classification was performed using BLASTn against a database derived from RDPII available at www.rdp.cme.msu.edu) and NCBI (www.ncbi.nlm.nih.gov). The change in relative abundance of the most abundant genera from before to after treatment of each individual mouse was reported. Further, raw sequences were processed in Qiita (Gonzalez, A., et al. (2018). Nat Methods 15, 796-798; the contents of which are herein incorporated by reference in its entirety) and were demultiplexed, trimmed to 100 bp, and closed reference OTU picking was performed against the Greengenes database at 97% similarity (McDonald, D. et al. (2012). ISME J 6, 610-618; the contents of which are herein incorporated by reference in its entirety). The alpha diversity based on the Simpson index was calculated in Qiita. The change in the Simpson index was calculated for the fecal microbiome of each mouse from before to after treatment. Statistical significance was calculated using a one-way ANOVA with Tukey's multiple comparisons test (p<0.05).

[15] = tested on: Bacteroides ovatus KLE 2306; format: cell-based; settings: Bacteroides ovatus KLE 2306, anaerobic, stool isolate
[16] = tested on: Salmonella typhimurium LT2 ATCC 19585; format: cell-based
[17] = tested on: Bacteroides cellulosilyticus KLE 2342; format: cell-based; settings: Bacteroides cellulosilyticus KLE 2342, anaerobic, stool isolate
[18] = tested on: Brevinema andersonii ATCC 43811; settings: Brevinema andersonii ATCC 43811, microaerophilic
[19] = tested on: Borreliella burgdorferi B31
[20] = tested on: Pseudomonas aeruginosa PAO1; format: cell-based
[21] = tested on: Staphylococcus aureus HG003; format: cell-based
[22] = tested on: Bacteroides nordii KLE 2369; format: cell-based; settings: Bacteroides nordii KLE 2369, anaerobic, stool isolate
[23] = tested on: Parabacteroides merdae KLE 2238; format: cell-based; settings: Parabacteroides merdae KLE 2238, anaerobic, stool isolate
[24] = tested on: Borreliella miyamotoi; settings: Borreliella miyamotoi, microaerophilic
[25] = tested on: B. burgdorferi N40; assay: Mouse infection model (IP injection, oral gavage); settings: for B. burgdorferi culture (% positive) / Mean # of B. burgdorferi/10 mg of skin tissue (qPCR): twice a day for 5 days; for Culture positive (%): C3H, 5 days, whole ear culture; for B. burgdorferi culture from mice: oral gavage twice per day
[26] = tested on: Bifidobacterium longum ATCC BAA-999; format: cell-based

Substance: Hygromycin A
- Minimum inhibitory concentration (MIC) [1]: 2 µg/mL
- Minimum inhibitory concentration (MIC) [2]: 64 µg/mL
- MIC ([3]; Leptospira biflexa): 4 µg
- Minimum inhibitory concentration (MIC) ([3]; Leptospira biflexa ATCC 23582): 4 µg/mL
- Minimum inhibitory concentration (MIC) [4]: 0.25 µg/mL
- Minimum inhibitory concentration (MIC) [5]: 0.25 µg/mL
- MIC ([6]; Borrelia turcica): 0.5 µg
- Minimum inhibitory concentration (MIC) ([6]; Borrelia turcica DSM 16138, microaerophilic): 0.5 µg/mL
- MIC ([7]; Bacteroides fragilis): >128 µg
- Minimum inhibitory concentration (MIC) ([7]; Bacteroides fragilis ATCC 25285, anaerobic): 32 µg/mL
- MIC ([8]; B. afzelii): 0.25 µg/mL
- MIC ([8]; Borrelia afzelii): 0.25 µg
- Minimum inhibitory concentration (MIC) ([8]; Borreliella afzelii, microaerophilic): 0.25 µg/mL
- Minimum inhibitory concentration (MIC) [9]: 32 µg/mL
- Minimum inhibitory concentration (MIC) [10]: 4 µg/mL
- MIC ([11]; B. bavariensis): 0.25 µg/mL
- MIC ([11]; Borrelia bavariensis): 0.25 µg
- Minimum inhibitory concentration (MIC) ([11]; Borreliella bavariensis, microaerophilic): 0.25 µg/mL
- MIC ([12]; Enterococcus faecalis): >128 µg
- Minimum inhibitory concentration (MIC) ([12]; Enterococcus faecalis KLE 2341, anaerobic, stool isolate): >128 µg/mL
- Minimum inhibitory concentration (MIC) [13]: >128 µg/mL
- Increases in Enterococcaceae or Enterobacteriaceae ([14]; HygA 50 mg/kg oral, 5 days): did not lead to increases
- Mice that maintained Bacteroidaceae levels ([14]; HygA 50 mg/kg oral, 5 days): 1/5
- Mice with decreased Bacteroidaceae ([14]; HygA 50 mg/kg oral, 5 days): 3/5
- Mice with increased Bacteroidaceae ([14]; HygA 50 mg/kg oral, 5 days): 1/5
- Overall fluctuation of Bacteroidaceae ([14]; HygA 50 mg/kg oral, 5 days, not significantly different from untreated): −8.5 % relative abundance
- Change in symbiotic Lactobacillus and Lactococcus ([14]; after treatment): prominent increase
- Changes in the composition of the microbiota ([14]; clinically relevant doses, 16S rDNA sequencing, FIG. 8, 9A, 9B): milder
- Minimum inhibitory concentration (MIC) [15]: 64 µg/mL
- MIC ([16]; Salmonella typhimurium): >128 µg
- Minimum inhibitory concentration (MIC) ([16]; Salmonella typhimurium LT2 ATCC 19585, anaerobic): >128 µg/mL
- Minimum inhibitory concentration (MIC) [17]: 8 µg/mL
- Minimum inhibitory concentration (MIC) [18]: 2 µg/mL
- MIC [19]: 0.25 µg/mL
- Minimum inhibitory concentration (MIC) ([19]; Borreliella burgdorferi B31, microaerophilic): 0.25 µg/mL
- MIC ([20]; Pseudomonas aeruginosa): >128 µg
- Minimum inhibitory concentration (MIC) ([20]; Pseudomonas aeruginosa PAO1): >128 µg/mL
- Activity against S. aureus, times lower compared to B. burgdorferi ([21]; S. aureus used in the counter-screen vs B. burgdorferi): 64 times
- MIC ([21]; Staphylococcus aureus): 8 µg
- Minimum inhibitory concentration (MIC) ([21]; Staphylococcus aureus HG003): 8 µg/mL
- Minimum inhibitory concentration (MIC) [22]: 8 µg/mL
- Minimum inhibitory concentration (MIC) [23]: 16 µg/mL
- Minimum inhibitory concentration (MIC) [24]: 0.25 µg/mL
- B. burgdorferi culture (% positive) ([25]; 25 mg/kg, oral gavage): 50%
- Mean # of B. burgdorferi/10 mg of skin tissue (qPCR) ([25]; 25 mg/kg, oral gavage): <1 B. burgdorferi/10 mg of skin t
- B. burgdorferi culture (% positive) ([25]; 50 mg/kg, oral gavage): 0%
- Mean # of B. burgdorferi/10 mg of skin tissue (qPCR) ([25]; 50 mg/kg, oral gavage): <1 B. burgdorferi/10 mg of skin t
- B. burgdorferi culture (% positive) ([25]; 70 mg/kg, oral gavage): 0%
- Mean # of B. burgdorferi/10 mg of skin tissue (qPCR) ([25]; 70 mg/kg, oral gavage): <1 B. burgdorferi/10 mg of skin t
- B. burgdorferi culture (% positive) ([25]; 75 mg/kg, IP injection): 0%
- Mean # of B. burgdorferi/10 mg of skin tissue (qPCR) ([25]; 75 mg/kg, IP injection): <1 B. burgdorferi/10 mg of skin t
- B. burgdorferi culture (% positive) ([25]; 250 mg/kg, oral gavage): 0%
- Mean # of B. burgdorferi/10 mg of skin tissue (qPCR) ([25]; 250 mg/kg, oral gavage): <1 B. burgdorferi/10 mg of skin t
- Culture positive (%) ([25]; intraperitoneal injection, daily dose 100 mg/kg/day): 0%
- Culture positive (%) ([25]; oral gavage, daily dose 50 mg/kg/day): 50%
- Culture positive (%) ([25]; oral gavage, daily dose 100 mg/kg/day): 0%
- Culture positive (%) ([25]; oral gavage, daily dose 140 mg/kg/day): 0%
- Culture positive (%) ([25]; oral gavage, daily dose 500 mg/kg/day): 0%
- Clearance of infection ([25]; IP injection twice a day, after 5 days of treatment, similarly to ceftriaxone control): cleared the infection
- B. burgdorferi culture from mice ([25]; 10 and 25 mg/kg): B. burgdorferi were cultured from mice
- B. burgdorferi culture from mice ([25]; doses higher than 25 mg/kg): not at any of the higher doses
- PCR from ear, joint and heart tissue ([25]; oral gavage, doses above 50 mg/kg): negative
- MIC ([26]; Bifidobacterium longum): 8 µg
- Minimum inhibitory concentration (MIC) ([26]; Bifidobacterium longum ATCC BAA-999, anaerobic): 8 µg/mL
